The source of these data is US20070037800A1, “Method of treating neurological disorders using clotrimazole and derivatives thereof” (EnVivo Pharmaceuticals, Inc., priority 2005, published 2007).

Series [1] relates to Kainic acid lesion in C57BL/6 mice. Briefly: Mouse model of acute neurodegeneration: kainic acid lesion volume. In kind it is in vivo. The settings on record: KA 1.0 nmol i.s.; clotrimazole 2 mg/kg i.p. twice daily; vs KA+vehicle; P=0.010 (t test of difference in log[size]); two days after KA. How it is done:
To test the hypothesis that clotrimazole may be neuroprotective against KA induced excitatory damage in the brain, clotrimazole was compared to benzamide as a positive control in the mouse model. Three study groups (n=8-9) were tested: (1) C57BL/6 treated with KA 1.0 nmol (i.s.) left hemisphere+vehicle (i.p.); (2) KA 1.0 nmol i.s. left hemisphere+clotrimazole (2mg/kg) i.p. twice daily for duration of the study (including a single dose 1 hour before KA); and (3) KA 1.0 nmol i.s. left hemisphere+benzamide (160 mg/kg, i.p. 30 min before injection and 3.5 hrs after). Kainic Acid (K0250), clotrimazole (C6019) and Benzamide (150762) were purchased from Sigma and prepared as followed: Kainic Acid was dissolved in phosphate buffered saline (1×PBS, pH 7.4), pH to 7.4 using NaOH. […]
Two days after injection of KA the animals were anesthetized and transcardially perfused with ice cold phosphate buffered saline (0.1 M PBS, pH 7.4) containing 10% sucrose and then perfused with ice-cold 4% paraformaldehyde in 0.1M PBS, pH 7.4. […] The area of the lesion, indicated by the lack of staining when compared to the contralateral (intact) striatum/cortex, was measured in each series of sections (n=25-30) blindly by means of an image analysis program and the lesion volume was calculated by a stereological method (Cavalieri's estimator of volume corrected for over projection).

The conditions of series [2]: cited from earlier work.

As for `Clc1ccccc1C(c1ccccc1)(c1ccccc1)n1ccnc1` [clotrimazole], the Lesion volume entry in series [1] was “statistically significant improvement”. Moreover, in series [2], the “Known side effects in humans” value is “lethargy, apathy, and weakness”.
